# Results reported in ChEMBL document CHEMBL3885861, “Open TG-GATES”.
# Species on record: Rattus norvegicus
# Assay: Open TG-GATES - Regimen: Single
# Type: toxicity, organism-based, Sprague-Dawley
# Set-up: regimen Single, gender Male, age 6 weeks
# Details: in vivo, po, 0 mg/kg, route gavage, dose level Control; for APTT / Bas / Eos / Fbg / Hb / Ht / Lym / MCH / MCHC / MCV / Mono / Neu / PT / Plat / RBC / Ret / WBC: tissue Blood; for KIDNEY_L / KIDNEY_R / KIDNEY_TOTAL: tissue Kidney; for LIVER: tissue Liver; for A/G / ALP / ALT / AST / BUN / CRE / Ca / Cl / DBIL / GLC / IP / K / LDH / Na / PL / RALB / TBIL / TC / TG / TP / gamma-GTP: tissue Plasma
compound,measurement,setting,value
CC1=C(/C=C/C(C)=C/C=C/C(C)=C/CO)C(C)(C)CCC1 [RETINOL],TERMINAL_BW,3 h,195.7 g
same,APTT,3 h,22 s
same,Bas,3 h,0%
same,Eos,3 h,0.8%
same,Fbg,3 h,294.8 mg/dL
same,Hb,3 h,13.3 g/dL
same,Ht,3 h,38.7%
same,Lym,3 h,79.4%
same,MCH,3 h,21.4 pg
same,MCHC,3 h,34.5%
same,MCV,3 h,62.2 fL
same,Mono,3 h,2%
same,Neu,3 h,16.8%
same,PT,3 h,15.8 s
same,Plat,3 h,108.5 x10_4/uL
same,RBC,3 h,621.4 x10_4/ul
same,Ret,3 h,8.9%
same,WBC,3 h,97.5 x10_2/uL
same,KIDNEY_L,3 h,0.9 g
same,KIDNEY_R,3 h,0.9 g
same,KIDNEY_TOTAL,3 h,1.8 g
same,LIVER,3 h,9 g
same,A/G,3 h,1.3
same,ALP,3 h,1760.6 IU/L
same,ALT,3 h,48 IU/L
same,AST,3 h,83.6 IU/L
same,BUN,3 h,12.8 mg/dL
same,CRE,3 h,0.2 mg/dL
same,Ca,3 h,10.6 mg/dL
same,Cl,3 h,107.6 meq/L
same,DBIL,3 h,0 mg/dL
same,GLC,3 h,181 mg/dL
same,IP,3 h,8.4 mg/dL
same,K,3 h,3.8 meq/L
same,LDH,3 h,265.2 IU/L
same,Na,3 h,142.2 meq/L
same,PL,3 h,148.6 mg/dL
same,RALB,3 h,3.2 g/dL
same,TBIL,3 h,0.012 mg/dL
same,TC,3 h,77 mg/dL
same,TG,3 h,58.6 mg/dL
same,TP,3 h,5.6 g/dL
same,gamma-GTP,3 h,2.8 IU/L
same,TERMINAL_BW,6 h,199.1 g
same,APTT,6 h,21.6 s
same,Bas,6 h,0%
same,Eos,6 h,0.6%
same,Fbg,6 h,309.6 mg/dL
same,Hb,6 h,13.5 g/dL
same,Ht,6 h,38.8%
same,Lym,6 h,77%
same,MCH,6 h,21.6 pg
same,MCHC,6 h,34.9%
same,MCV,6 h,61.8 fL
same,Mono,6 h,3%
same,Neu,6 h,18.8%
same,PT,6 h,15.7 s
same,Plat,6 h,114.9 x10_4/uL
same,RBC,6 h,628.2 x10_4/ul
same,Ret,6 h,8.5%
same,WBC,6 h,113.2 x10_2/uL
same,KIDNEY_L,6 h,1 g
same,KIDNEY_R,6 h,1 g
same,KIDNEY_TOTAL,6 h,1.9 g
same,LIVER,6 h,9.2 g
same,A/G,6 h,1.3
same,ALP,6 h,1700 IU/L
same,ALT,6 h,36.8 IU/L
same,AST,6 h,67.8 IU/L
same,BUN,6 h,10.6 mg/dL
same,CRE,6 h,0.1 mg/dL
same,Ca,6 h,10.9 mg/dL
same,Cl,6 h,106.4 meq/L
same,DBIL,6 h,0.014 mg/dL
same,GLC,6 h,181.4 mg/dL
same,IP,6 h,9.9 mg/dL
same,K,6 h,4.5 meq/L
same,LDH,6 h,223.6 IU/L
same,Na,6 h,142 meq/L
same,PL,6 h,152 mg/dL
same,RALB,6 h,3.2 g/dL
same,TBIL,6 h,0.022 mg/dL
same,TC,6 h,80.6 mg/dL
same,TG,6 h,79.6 mg/dL
same,TP,6 h,5.5 g/dL
same,gamma-GTP,6 h,1.2 IU/L
same,TERMINAL_BW,9 h,198.5 g
same,APTT,9 h,21.2 s
same,Bas,9 h,0%
same,Eos,9 h,0.6%
same,Fbg,9 h,303.2 mg/dL
same,Hb,9 h,13.1 g/dL
same,Ht,9 h,38.3%
same,Lym,9 h,81.4%
same,MCH,9 h,21.6 pg
same,MCHC,9 h,34.3%
same,MCV,9 h,63 fL
same,Mono,9 h,2.6%
same,Neu,9 h,15%
same,PT,9 h,15.8 s
same,Plat,9 h,122.4 x10_4/uL
same,RBC,9 h,608.2 x10_4/ul
same,Ret,9 h,7.9%
same,WBC,9 h,88.4 x10_2/uL
same,KIDNEY_L,9 h,0.9 g
same,KIDNEY_R,9 h,0.9 g
same,KIDNEY_TOTAL,9 h,1.9 g
same,LIVER,9 h,8.3 g
same,A/G,9 h,1.2
same,ALP,9 h,1691.8 IU/L
same,ALT,9 h,33.8 IU/L
same,AST,9 h,72.2 IU/L
same,BUN,9 h,10 mg/dL
same,CRE,9 h,0.1 mg/dL
same,Ca,9 h,10.8 mg/dL
same,Cl,9 h,107.8 meq/L
same,DBIL,9 h,0 mg/dL
same,GLC,9 h,183 mg/dL
same,IP,9 h,10.8 mg/dL
same,K,9 h,4.4 meq/L
same,LDH,9 h,302 IU/L
same,Na,9 h,142 meq/L
same,PL,9 h,131.2 mg/dL
same,RALB,9 h,2.9 g/dL
same,TBIL,9 h,0.018 mg/dL
same,TC,9 h,73.4 mg/dL
same,TG,9 h,52.2 mg/dL
same,TP,9 h,5.4 g/dL
same,gamma-GTP,9 h,4.4 IU/L
same,TERMINAL_BW,24 h,205.1 g
same,APTT,24 h,20.8 s
same,Bas,24 h,0%
same,Eos,24 h,0.8%
same,Fbg,24 h,294 mg/dL
same,Hb,24 h,13.1 g/dL
same,Ht,24 h,37.7%
same,Lym,24 h,79.4%
same,MCH,24 h,21.9 pg
same,MCHC,24 h,34.8%
same,MCV,24 h,63.2 fL
same,Mono,24 h,2.6%
same,Neu,24 h,16.6%
same,PT,24 h,16.1 s
same,Plat,24 h,119.1 x10_4/uL
same,RBC,24 h,598.2 x10_4/ul
same,Ret,24 h,7.8%
same,WBC,24 h,85.8 x10_2/uL
same,KIDNEY_L,24 h,0.9 g
same,KIDNEY_R,24 h,0.9 g
same,KIDNEY_TOTAL,24 h,1.9 g
same,LIVER,24 h,9.7 g
same,A/G,24 h,1.3
same,ALP,24 h,1692.4 IU/L
same,ALT,24 h,41.8 IU/L
same,AST,24 h,71.8 IU/L
same,BUN,24 h,17.6 mg/dL
same,CRE,24 h,0.2 mg/dL
same,Ca,24 h,10.7 mg/dL
same,Cl,24 h,105.6 meq/L
same,DBIL,24 h,0.006 mg/dL
same,GLC,24 h,181.6 mg/dL
same,IP,24 h,6.4 mg/dL
same,K,24 h,4.3 meq/L
same,LDH,24 h,245.8 IU/L
same,Na,24 h,141.2 meq/L
same,PL,24 h,154.2 mg/dL
same,RALB,24 h,3.1 g/dL
same,TBIL,24 h,0.016 mg/dL
same,TC,24 h,79.6 mg/dL
same,TG,24 h,79.2 mg/dL
same,TP,24 h,5.5 g/dL
same,gamma-GTP,24 h,1.2 IU/L
